The results in this text go back to patent publication US10899723B2, “Heterocyclic containing cyclopropyl FXR modulators” (Hepagene Therapeutics (HK) Limited, priority 2016, dated 2021).

Structures can show the parent of a compound that is named as a salt.

Assay [1] concerns the target T1, FXR (Homo sapiens, UniProt Q96RI1).
T1 construct: expressed in transfected cells; host or cells: HEK293T
T1 sequence (Q96RI1 1-486): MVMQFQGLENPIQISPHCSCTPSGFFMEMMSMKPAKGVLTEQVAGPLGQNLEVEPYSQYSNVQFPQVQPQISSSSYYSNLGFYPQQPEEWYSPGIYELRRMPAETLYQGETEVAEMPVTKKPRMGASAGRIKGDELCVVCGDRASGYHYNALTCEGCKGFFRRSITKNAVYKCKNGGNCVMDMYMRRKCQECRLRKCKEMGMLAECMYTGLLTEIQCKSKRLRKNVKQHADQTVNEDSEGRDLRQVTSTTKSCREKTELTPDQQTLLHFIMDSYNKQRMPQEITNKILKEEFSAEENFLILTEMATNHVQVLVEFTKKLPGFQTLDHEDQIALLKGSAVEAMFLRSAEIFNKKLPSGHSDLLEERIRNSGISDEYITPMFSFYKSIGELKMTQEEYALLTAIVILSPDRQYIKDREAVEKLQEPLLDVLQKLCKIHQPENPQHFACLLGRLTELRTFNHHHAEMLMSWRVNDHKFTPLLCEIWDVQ
As to the kind of experiment: FXR Transactivation Assay (pBIND-FXR / pGL4.35 luciferase reporter in HEK293T). It is filed as cell-based. The settings on record: HEK293T cells. The procedure:
FXR Transactivation Assay
pGL4.35 [luc2P/9XGAL4 UAS/Hygro]
DMEM medium, high glucose
Fetal Bovine Serum (FBS, heat-inactivated)
Penicillin-Streptomycin (10000 U/ml, 100 ml)
DMEM, High Glucose, HEPES, no Phenol Red
Opti-MEM® I Reduced Serum Medium
Steady-Glo™ Luciferase Assay System
TransIT-293 Transfection Reagent
GW4064 as a positive control
(§1) • 1. Hek293T cells were plated at 1.1*10^6/ml into a 100 mm dish. • 2. Cells were transfected with 8.4 μg of pBind-FXR, 1.26 μg of the reporter vector pGL4.35 (Promega). Cells were incubated at 37° C. under 5% CO2 atmosphere. • 3. All of compounds were 3-fold serial diluted from 10 mM stock for 10 doses in DMSO. • 4. Transfer compound dilutions into 384 well assay plates using liquid workstation. • 5. Seed 25 ul HEK293T cells into 384 well assay plate (prepared step 4) at 0.6*10^5/ml. Cells were incubated at 37° C. under 5% CO2 atmosphere overnight. • 6. Add 25 ul steady-Glo™ Luciferase Assay Reagent into each well of 384-well assay plate. • 7. Record the luminescence value on Envision 2104 plate reader. • 8. Calculate EC50 by fitting % Activity values and log of compound concentrations to nonlinear regression (dose response−variable slope) with Graphpad 5.0. FXR Coactivator Assay Reagents: LanthaScreen™ TR-FRET Farnesoid X Receptor Coactivator Assay GW4064 as a positive control Process: • 1. All of compounds were 3-fold serial diluted from 10 mM stock for 10 doses in DMSO. • 2. Dilute each 100× agonist serial dilution to 2× using Complete Coregulator buffer G. • 3. Transfer 10 μl of each of the 2× agonist serial dilutions to 384 well assay plates. • 4. […] Incubate at room temperature protected from light. • 7. Read the plate at wavelengths of 520 nm and 495 nm on Envision 2104 plate reader. • 8. Calculate the TR-FRET ratio by dividing the emission signal at 520 nm by the emission signal at 495 nm. • 9. Calculate EC50 by fitting % Activity values and log of compound concentrations to nonlinear regression (dose response−variable slope) with Graphpad 5.0.
A general note: In a reporter assay the amount or activity of a reporter protein is the signal.

The target of assay [2] is T2, FXR-LBD (Homo sapiens, UniProt Q96RI1).
T2 construct: Add 5 μl of 4×FXR-LBD to 384 well assay plates; purchased
T2 sequence (Q96RI1 262-486 limits assumed): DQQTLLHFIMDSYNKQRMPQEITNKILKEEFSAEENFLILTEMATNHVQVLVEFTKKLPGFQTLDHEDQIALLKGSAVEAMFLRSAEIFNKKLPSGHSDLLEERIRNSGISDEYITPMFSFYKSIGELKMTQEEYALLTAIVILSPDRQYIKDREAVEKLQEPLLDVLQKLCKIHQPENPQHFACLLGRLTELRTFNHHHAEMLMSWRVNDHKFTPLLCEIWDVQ
As to the kind of experiment: FXR Coactivator Assay (LanthaScreen TR-FRET). The assay is classed as biochemical. The procedure:
as §1
(In general: TR-FRET usually uses a lanthanide donor and a delayed reading to cut background.)

The EC50 is the concentration at which the effect is half-maximal. For the compound `CC1(c2cncc(C(=O)O)c2)CC1c1ccc(OCc2c(-c3c(Cl)cccc3Cl)noc2C2CC2)cc1Cl` (single isomer, unassigned) [IV-06-1, 5-[2-(2-Chloro-4-[[5-cyclopropyl-3-(2,6-dichlorophenyl)-1,2-oxazol-4-yl]methoxy]phenyl)-1-methylcyclopropyl] pyridine-3-carboxylic Acid], the half-maximal effective concentration (EC50) in assay [1] lay in the range of 0.101 to 0.4 µM.

As to `CC1(c2cncc(C(=O)O)c2)CC1c1ccc(OCc2c(-c3c(Cl)cccc3Cl)noc2C2CC2)cc1Cl` (single isomer, unassigned) [IV-06-2, 5-[2-(2-Chloro-4-[[5-cyclopropyl-3-(2,6-dichlorophenyl)-1,2-oxazol-4-yl]methoxy]phenyl)-1-methylcyclopropyl] pyridine-3-carboxylic Acid], the EC50 in assay [1] lay within 0.01 to 0.1 µM.

Turning to `N#CC1(c2ccc(OCc3c(-c4c(Cl)cccc4Cl)noc3C3CC3)cc2Cl)CC1c1cccc(C(=O)O)c1` (single isomer, unassigned) [VII-03-2, 3-[2-(2-Chloro-4-[[5-cyclopropyl-3-(2,6-dichlorophenyl)-1,2-oxazol-4-yl]methoxy]phenyl)-2-cyanocyclopropyl] benzoic Acid], the concentration for a half-maximal effect (EC50) in assay [1] lay within 0.01 to 0.1 µM.

`CC(C)c1onc(-c2c(Cl)cccc2Cl)c1COc1ccc(C2CC2(CN)c2ccc(C(=O)O)cc2)c(Cl)c1` (centres unmarked) [Compound V2-01, 4-[1-(Aminomethyl)-2-(2-chloro-4-[[3-(2,6-dichlorophenyl)-5-(propan-2-yl)-1,2-oxazol-4-yl]methoxy]phenyl)cyclopropyl] benzoic Acid Hydrochloride] gave a 50% effective concentration (EC50) in assay [2] of 0.401 to 5 µM.

`N#CC1(c2cccc(C(=O)O)c2)CC1c1ccc(OCc2c(-c3c(Cl)cccc3Cl)noc2C2CC2)cc1Cl` (centres unmarked) [Compound V-03] displayed an EC50 in assay [1] of 0.401 to 5 µM.

In assay [1], `N#CC1(c2cncc(C(=O)O)c2)CC1c1ccc(OCc2c(-c3c(Cl)cccc3Cl)noc2C2CC2)cc1Cl` (centres unmarked) [Compound V-04, 5-[2-(2-Chloro-4-[[5-cyclopropyl-3-(2,6-dichlorophenyl)-1,2-oxazol-4-yl]methoxy]phenyl)-1-cyanocyclopropyl] pyridine-3-carboxylic Acid] came in with an EC50 of 0.401 to 5 µM.

In the case of `CC1(c2cccc(C(=O)O)c2)CC1c1ccc(OCc2c(-c3c(Cl)cncc3Cl)noc2C2CC2)cc1Cl` (centres unmarked) [IV-04], in assay [1], the EC50 fell in the range of 0.101 to 0.4 µM.

In turn, `CC1(c2ccnc(C(=O)O)c2)CC1c1ccc(OCc2c(-c3c(Cl)cccc3Cl)noc2C2CC2)cc1Cl` (centres unmarked) [IV-07] returned a 50% effective concentration (EC50) in assay [1] of 0.401 to 5 µM.

In assay [1], `CC1(c2cncc(C(=O)O)c2)CC1c1ccc(OCc2c(-c3c(Cl)cncc3Cl)noc2C2CC2)cc1Cl` (centres unmarked) [IV-08] registered an EC50 of 0.101 to 0.4 µM.

As to `CC1(c2cncc(C(=O)O)c2)CC1c1ccc(OCc2c(-c3ccccc3OC(F)(F)F)noc2C2CC2)cc1Cl` (centres unmarked) [IV-09, 5-[2-[2-Chloro-4-([5-cyclopropyl-3-[2-(trifluoromethoxy)phenyl]-1,2-oxazol-4-yl]methoxy)phenyl]-1-methylcyclopropyl] pyridine-3-carboxylic Acid], the EC50 in assay [1] was in the range of 0.101 to 0.4 µM.

In turn, `CC1(c2cncc(C(=O)O)c2)CC1c1ccc(OCc2c(-c3ccccc3OC(F)F)noc2C2CC2)cc1Cl` (centres unmarked) [IV-10] came in with a half-maximal effective concentration (EC50) in assay [1] of 0.101 to 0.4 µM.

Consider `CC(C)c1cnn(-c2c(Cl)cccc2Cl)c1COc1ccc(C2CC2(C)c2cncc(C(=O)O)c2)c(Cl)c1` (centres unmarked) [IV-11], for which the EC50 in assay [1] lay within 0.01 to 0.1 µM.

In the case of `CC1(c2cncc(C(=O)NCC(=O)O)c2)CC1c1ccc(OCc2c(-c3c(Cl)cccc3Cl)noc2C2CC2)cc1Cl` (centres unmarked) [IV-12, 2-([5-[2-(2-Chloro-4-[[5-cyclopropyl-3-(2,6-dichlorophenyl)-1,2-oxazol-4-yl]methoxy]phenyl)-1-methylcyclopropyl]pyridin-3-yl] formamido) Acetic Acid], the EC50 in assay [1] was 0.401 to 5 µM.

In turn, `CC1(c2cncc(C(=O)NCCS(=O)(=O)O)c2)CC1c1ccc(OCc2c(-c3c(Cl)cccc3Cl)noc2C2CC2)cc1Cl` (centres unmarked) [IV-13] had a 50% effective concentration (EC50) in assay [2] of 0.01 to 0.1 µM.

In assay [1], `CC(C)c1onc(-c2c(Cl)cccc2Cl)c1COc1ccc(C2CC2(C)c2ccc3c(c2)c(C(=O)O)nn3C(C)C)c(Cl)c1` (centres unmarked) [IV-14] displayed an EC50 of 0.401 to 5 µM.

`COc1cc(C(=O)O)cc2sc(C3(C)CC3c3ccc(OCc4c(-c5c(Cl)cccc5Cl)noc4C(C)C)cc3Cl)nc12` (centres unmarked) [IV-16]: the EC50 in assay [1] was 0.101 to 0.4 µM.

In turn, `CC1(c2nc3ccc(C(=O)O)cc3s2)CC1c1ccc(OCc2c(-c3c(Cl)cccc3Cl)noc2C2CC2)cc1Cl` (centres unmarked) [IV-17] registered an EC50 in assay [1] of 0.101 to 0.4 µM.

As to `Cc1cc(C(=O)O)cc2sc(C3(C)CC3c3ccc(OCc4c(-c5c(Cl)cccc5Cl)noc4C4CC4)cc3Cl)nc12` (centres unmarked) [IV-18], in assay [2], the concentration for a half-maximal effect (EC50) was 0.401 to 5 µM.

On to `CC1(c2ccc(OCc3c(-c4c(Cl)cccc4Cl)noc3C3CC3)cc2Cl)CC1c1cccc(C(=O)O)c1` (centres unmarked) [VI-03], for which the EC50 in assay [1] lay within 0.01 to 0.1 µM.

In assay [1], `CC1(c2ccc(OCc3c(-c4c(Cl)cccc4Cl)noc3C3CC3)cc2Cl)CC1c1ccnc(C(=O)O)c1` (centres unmarked) [VI-06] gave a 50% effective concentration (EC50) of 0.01 to 0.1 µM.

As to `CC1(c2ccc(OCc3c(-c4c(Cl)cccc4Cl)noc3C3CC3)cc2Cl)CC1c1cc(C(=O)O)ccn1` (centres unmarked) [VI-07], the EC50 in assay [1] was in the range of 0.101 to 0.4 µM.

Compound `CC(C)c1onc(-c2c(Cl)cccc2Cl)c1COc1ccc(C2(C)CC2c2nc3c(F)cc(C(=O)O)cc3s2)c(Cl)c1` (centres unmarked) [VI-08] had a concentration for a half-maximal effect (EC50) in assay [1] of 0.01 to 0.1 µM.

For the compound `CC1(c2ccc(OCc3c(-c4c(Cl)cccc4Cl)noc3C3CC3)cc2Cl)CC1c1nc2c(F)cc(C(=O)O)cc2s1` (centres unmarked) [VI-09], the EC50 in assay [1] lay in the range of 0.01 to 0.1 µM.

For the compound `CC(C)c1onc(-c2c(Cl)cccc2Cl)c1COc1ccc(C2(C)CC2c2nc3ccc(C(=O)O)cc3s2)c(Cl)c1` (centres unmarked) [VI-11], the EC50 in assay [1] was in the range of 0.01 to 0.1 µM.

In assay [1], `CC(C)c1onc(-c2c(Cl)cccc2Cl)c1COc1ccc(C2(C)CC2c2ncc(C(=O)O)s2)c(Cl)c1` (centres unmarked) [VI-12, 2-(2-(2-Chloro-4-((3-(2,6-dichlorophenyl)-5-isopropylisoxazol-4-yl)methoxy)phenyl)-2-methylcyclopropyl) thiazole-5-carboxylic Acid] had an EC50 of 0.01 to 0.1 µM.

As to `CC1(c2ccc(OCc3c(-c4c(Cl)cccc4Cl)noc3C3CC3)cc2Cl)CC1c1ncc(C(=O)O)s1` (centres unmarked) [VI-13], the half-maximal effective concentration (EC50) in assay [1] lay within 0.01 to 0.1 µM.

In assay [1], `N#CC1(c2ccc(OCc3c(-c4c(Cl)cccc4Cl)noc3C3CC3)cc2Cl)CC1c1cncc(C(=O)O)c1` (centres unmarked) [VII-05, 5-(2-(4-((3-(2,6-Dichlorophenyl)-5-cyclopropylisoxazol-4-yl)methoxy)-2-chlorophenyl)-2-cyanocyclopropyl) pyridine-3-carboxylic Acid] came in with a 50% effective concentration (EC50) of 0.401 to 5 µM.

In the case of `COc1cc(C(=O)O)cc2sc(C3CC3(C#N)c3ccc(OCc4c(-c5c(Cl)cccc5Cl)noc4C4CC4)cc3Cl)nc12` (centres unmarked) [VII-06, 2-[2-(2-Chloro-4-[[5-cyclopropyl-3-(2,6-dichlorophenyl)-1,2-oxazol-4-yl]methoxy]phenyl)-2-cyanocyclopropyl]-4-methoxy-1,3-benzothiazole-6-carboxylic Acid], the EC50 in assay [1] was in the range of 0.101 to 0.4 µM.

Compound `CC(C)n1nc(C(=O)O)cc1C1CC1(C#N)c1ccc(OCc2c(-c3c(Cl)cccc3Cl)noc2C2CC2)cc1Cl` (centres unmarked) [VII-07] had an EC50 in assay [1] of 0.401 to 5 µM.

In the case of `Cc1ccc(C(=O)O)cc1C1CC1(C#N)c1ccc(OCc2c(-c3c(Cl)cccc3Cl)noc2C2CC2)cc1Cl` (centres unmarked) [VII-08], the EC50 in assay [1] is 0.01 to 0.1 µM.

Regarding `COc1ccc(C(=O)O)cc1C1CC1(C#N)c1ccc(OCc2c(-c3c(Cl)cccc3Cl)noc2C2CC2)cc1Cl` (centres unmarked) [VII-09], the half-maximal effective concentration (EC50) in assay [1] was 0.101 to 0.4 µM.

Turning to `Cc1cc(C(=O)O)cc(C2CC2(C#N)c2ccc(OCc3c(-c4c(Cl)cccc4Cl)noc3C3CC3)cc2Cl)c1` (centres unmarked) [VII-10], the concentration giving a half-maximal response (EC50) in assay [1] lay within 0.01 to 0.1 µM.
